Values of other authors in patent US20100022462A1, “APPETITE S[…] COLON CLEANSING COMPOSITION” (priority 2008, published 2010).

System: lipase
Settings: background statement on the marketed drug; no test conditions given

## CCCCCCCCCCC[C@@H](C[C@@H]1OC(=O)[C@H]1CCCCCC)OC(=O)[C@H](CC(C)C)NC=O [XENICAL, orlistat]
  decreasing dietary fat absorption: 30%
